# Earlier results as cited in patent publication US9592230B2, “Substituted imidazoles as PDE10A inhibitors” (priority 2008, dated 2017).
# How the values were obtained:
# [1] = test system: hyperactivity in rats induced by PCP
# [2] = test system: cataleptic effect of the D2 receptor antagonist haloperidol; conditions: rats
# [3] = test system: amphetamine induced hyperactivity; conditions: rats
smiles,measurement,setting,value
"COc1ccc(Cc2nccc3cc(OC)c(OC)cc23)cc1OC [Papaverine, papaverine]",hyperactivity induced by PCP,[1],reduced hyperactivity
same,catalepsy on its own,[2]; alone,did not cause catalepsy on its own
same,effect on the cataleptic effect of haloperidol,[2]; together with haloperidol,potentiated the cataleptic effect
same,reduction of amphetamine induced hyperactivity,[3],insignificant
